How the values were obtained:
[1] = Assay 1. Stability of multibiotic agents in a buffer; format: physicochemical; set-up: key to Assay 1 (% Remaining @ 24 hours): A: <25% of the tested compound remaining; B: 25-75% of the tested compound remaining; C: >75% of the tested compound remaining; D: no change in the amount of the tested compound; conditions: for degradation in Assay 1 (in words): buffer stability; for Assay 1 (% Remaining @ 24 hours): phosphate buffer pH 2, 4, 6 and 8, RT, 2 μM, LC/MS/MS
Description: Assay 1. Stability of multibiotic agents in a buffer. This assay can be used for the assessment of the stability of a multibiotic agent at different physiological pH levels.
Compounds were diluted in DMSO, and the resulting solution was added in the appropriate quantity to phosphate buffer (pH levels 2, 4, 6, and 8) to reach a total sample concentration of 2 μM. Compounds were incubated at RT, and aliquots were removed at time points 0, 60, 120, 360 and 1440 minutes and analyzed for purity by LC/MS/MS.

[2] = Stability of multibiotic agents in Simulated Gastric Fluid (SGF); format: in vitro ADME; conditions: simulated gastric fluid pH 1.6 with pepsin, 37° C., 1 μM
Summary of the method: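 Compounds were incubated at 1 μM final at 37 °C in simulated gastric fluid containing NaCl, pH 1.6, with FaSSIF powder and 0.1 mg/mL pepsin. Aliquots were taken at T0 and at regular intervals and quenched with acetonitrile. Degradation rates were determined by LC/MS.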

[3] = Stability of multibiotic agents in Simulated Intestinal Fluid (SIF); format: in vitro ADME; conditions: simulated intestinal fluid pH 6.7 with pancreatin, 37° C., 1 μM
Summary of the method: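 Compounds at 1 μM final (from 1 mM DMSO stock) incubated at 37 °C with agitation in fresh SIF (FaSSIF plus pancreatin in pH 6.7 phosphate buffer). Aliquots taken at T0 and regular intervals, quenched with 1 volume acetonitrile. Degradation rate determined by LC/MS.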

Row | degradation in Assay 1 (in words) [1] | Assay 1 (% Remaining @ 24 hours) [1] | SMILES | Assay 2 (SGF) (% Remaining @ 4 hours) [2] | Assay 3 (SIF) (% @ Remaining 4 hours) [3]
1 | no apparent degradation | D | O=C(CCCc1ccccc1)OC1OC[C@@H](OC(=O)CCCc2ccccc2)[C@H](OC(=O)CCCc2ccccc2)[C@H]1OC(=O)CCCc1ccccc1 (mixture of isomers) [Example 24, [(3R,4S,5R)-4,5,6-tris(4-phenylbutanoyloxy)tetrahydropyran-3-yl] 4-phenylbutanoate] |  | 
2 | no apparent degradation | D | CCCC(=O)OC1OC[C@@H](OC(=O)CCC)[C@H](OC(=O)CCC)[C@H]1OC(=O)CCC (mixture of isomers) [Example 29, [(3R,4S,5R)-4,5,6-tri(butanoyloxy)tetrahydropyran-3-yl] butanoate] |  | 
3 | no apparent degradation | D | CCCC(=O)O[C@@H]1[C@@H](OC(=O)CCC)[C@H](Oc2ccc(N)cc2C(=O)O)OC[C@H]1OC(=O)CCC [Example 21, 5-amino-2-[(2S,3R,4S,5R)-3,4,5-tri(butanoyloxy)tetrahydropyran-2-yl]oxy-benzoic acid] | C (>75% of the tested compound remaining) | C (>75% of the tested compound remaining)
4 |  |  | CC(=O)Oc1ccc(C2CC(=O)c3c(OC(C)=O)cc(OC(C)=O)cc3O2)cc1 (centres unmarked) [Example 170, [4-(5,7-diacetoxy-4-oxo-chroman-2-yl)phenyl] acetate] | C (>75% of the tested compound remaining) | A (<25% of the tested compound remaining)
5 |  |  | CCCC(=O)Oc1ccc(C2CC(=O)c3c(OC(=O)CCC)cc(OC(=O)CCC)cc3O2)cc1 (centres unmarked) [Example 171, [4-[5,7-di(butanoyloxy)-4-oxo-chroman-2-yl]phenyl] butanoate] | B (25-75% of the tested compound remaining) | A (<25% of the tested compound remaining)
6 |  |  | C[C@@H](O)CCOC(=O)C[C@@H](C)O [Example 172, [(3R)-3-hydroxybutyl] (3R)-3-hydroxybutanoate] | C (>75% of the tested compound remaining) | C (>75% of the tested compound remaining)
7 |  |  | CCCC(=O)O[C@H](C)CCOC(=O)C[C@@H](C)OC(=O)CCC [Example 173, [(3R)-3-butanoyloxybutyl] (3R)-3-butanoyloxybutanoate] | C (>75% of the tested compound remaining) | A (<25% of the tested compound remaining)
8 |  |  | CC(=O)Oc1cc(OC(C)=O)c2c(=O)c(OC(C)=O)c(-c3cc(OC(C)=O)c(OC(C)=O)c(OC(C)=O)c3)oc2c1 [Example 177, [3,5-diacetoxy-4-oxo-2-(3,4,5-triacetoxyphenyl)chromen-7-yl] acetate] | C (>75% of the tested compound remaining) | A (<25% of the tested compound remaining)
9 |  |  | CC(=O)OCC[C@@H](C)OC(=O)Oc1ccc(/C=C/c2cc(OC(=O)O[C@H](C)CCOC(C)=O)cc(OC(=O)O[C@H](C)CCOC(C)=O)c2)cc1 [Example 178, [(3R)-3-[4-[(E)-2-[3,5-bis[[(1R)-3-acetoxy-1-methyl-propoxy]carbonyloxy]phenyl]vinyl]phenoxy]carbonyloxybutyl] acetate] | C (>75% of the tested compound remaining) | A (<25% of the tested compound remaining)
10 |  |  | CC(=O)OC[C@H]1O[C@@H](Oc2c(C)c(C)c3c(c2C)CC[C@@](C)(CCC[C@H](C)CCC[C@H](C)CCCC(C)C)O3)[C@H](OC(C)=O)[C@@H](OC(C)=O)[C@@H]1OC(C)=O [Example 180, [(2R,3R,4S,5R,6S)-3,4,5-triacetoxy-6-[(2R)-2,5,7,8-tetramethyl-2-[(4R,8R)-4,8,12-trimethyltridecyl]chroman-6-yl]oxy-tetrahydropyran-2-yl]methyl acetate] | C (>75% of the tested compound remaining) | C (>75% of the tested compound remaining)
11 |  |  | C[C@@H]1CCOC(C)(C(=O)Oc2ccc(/C=C/c3cc(OC(=O)C4(C)OCC[C@@H](C)O4)cc(OC(=O)C4(C)OCC[C@@H](C)O4)c3)cc2)O1 (stereo partly drawn) [Example 182, [4-[(E)-2-[3,5-bis[[(4R)-2,4-dimethyl-1,3-dioxane-2-carbonyl]oxy]phenyl]vinyl]phenyl] (4R)-2,4-dimethyl-1,3-dioxane-2-carboxylate] | C (>75% of the tested compound remaining) | C (>75% of the tested compound remaining)
12 |  |  | Cc1c(C)c2c(c(C)c1OC(=O)C1OCC[C@@H](C)O1)CC[C@@](C)(CCC[C@H](C)CCC[C@H](C)CCCC(C)C)O2 (stereo partly drawn) [Example 183, [(2R)-2,5,7,8-tetramethyl-2-[(4R,8R)-4,8,12-trimethyltridecyl]chroman-6-yl] (4R)-4-methyl-1,3-dioxane-2-carboxylate] | C (>75% of the tested compound remaining) | A (<25% of the tested compound remaining)
13 |  |  | C=C1CC[C@H](OC(=O)[C@H](OC(=O)CCC)[C@@H](OC(=O)CCC)[C@H](OC(=O)CCC)[C@@H](COC(=O)CCC)OC(=O)CCC)C/C1=C/C=C1\CCC[C@]2(C)[C@@H]([C@H](C)CCCC(C)C)CC[C@@H]12 [Example 184, [(1S,3Z)-3-[(2E)-2-[(1R,3aS,7aR)-1-[(1R)-1,5-dimethylhexyl]-7a-methyl-2,3,3a,5,6,7-hexahydro-1H-inden-4-ylidene]ethylidene]-4-methylene-cyclohexyl] (2R,3S,4R,5R)-2,3,4,5,6-penta(butanoyloxy)hexanoate] | B (25-75% of the tested compound remaining) | A (<25% of the tested compound remaining)
14 |  |  | C=C1CC[C@H](OC(=O)C2OCC[C@@H](C)O2)C/C1=C/C=C1\CCC[C@]2(C)[C@@H]([C@H](C)CCCC(C)C)CC[C@@H]12 (stereo partly drawn) [Example 186, [(1S,3Z)-3-[(2E)-2-[(1R,3aS,7aR)-1-[(1R)-1,5-dimethylhexyl]-7a-methyl-2,3,3a,5,6,7-hexahydro-1H-inden-4-ylidene]ethylidene]-4-methylene-cyclohexyl] (4R)-4-methyl-1,3-dioxane-2-carboxylate] | C (>75% of the tested compound remaining) | C (>75% of the tested compound remaining)
15 |  |  | C=C1CC[C@H](OC(=O)C2(C)OCC[C@@H](C)O2)C/C1=C/C=C1\CCC[C@]2(C)[C@@H]([C@H](C)CCCC(C)C)CC[C@@H]12 (stereo partly drawn) [Example 187, [(1S,3Z)-3-[(2E)-2-[(1R,3aS,7aR)-1-[(1R)-1,5-dimethylhexyl]-7a-methyl-2,3,3a,5,6,7-hexahydro-1H-inden-4-ylidene]ethylidene]-4-methylene-cyclohexyl] (4R)-2,4-dimethyl-1,3-dioxane-2-carboxylate] | B (25-75% of the tested compound remaining) | C (>75% of the tested compound remaining)
